Data: ChEMBL document CHEMBL1201862, “PubChem BioAssay data set” (2004)
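Growth conditions: 96-well plates. Treatment: test compound, 48 hours, 5 concentrations. Analysis: linear interpolation between bracketing concentrations; unreached endpoints set to highest concentration. Abbreviation: GI50, concentration required for 50% inhibition of growth.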 Active and inactive are the calls of the source. Cut-off read from the data, not from the text of the source: active = GI50 up to about 1.1 µM and inactive = higher.

Columns and labels:
Assay in all cases: NCI tumour cell line growth inhibition, 48 h
786-0 = tested on: 786-0
A549 = tested on: A549
ACHN = tested on: ACHN
CAKI-1 = tested on: CAKI-1
CCRF-CEM = tested on: CCRF-CEM
COLO 205 = tested on: COLO 205
DU-145 = tested on: DU-145
EKVX = tested on: EKVX
HCC 2998 = tested on: HCC 2998
HCT-116 = tested on: HCT-116
HCT-15 = tested on: HCT-15
HL-60 = tested on: HL-60
HOP-62 = tested on: HOP-62
HOP-92 = tested on: HOP-92
HT-29 = tested on: HT-29
Hs-578T = tested on: Hs-578T
IGROV-1 = tested on: IGROV-1
K562 = tested on: K562
KM12 = tested on: KM12
LOX IMVI = tested on: LOX IMVI
M14 = tested on: M14
MCF7 = tested on: MCF7
MDA-MB-231 = tested on: MDA-MB-231
MDA-MB-435 = tested on: MDA-MB-435
MDA-N = tested on: MDA-N
MOLT-4 = tested on: MOLT-4
NCI-H226 = tested on: NCI-H226
NCI-H23 = tested on: NCI-H23
NCI-H460 = tested on: NCI-H460
NCI-H522 = tested on: NCI-H522
NCI/ADR-RES = tested on: NCI/ADR-RES
OVCAR-3 = tested on: OVCAR-3
OVCAR-4 = tested on: OVCAR-4
OVCAR-5 = tested on: OVCAR-5
OVCAR-8 = tested on: OVCAR-8
PC-3 = tested on: PC-3
RPMI-8226 = tested on: RPMI-8226
RXF 393 = tested on: RXF 393
SF-268 = tested on: SF-268
SF-295 = tested on: SF-295
SF-539 = tested on: SF-539
SK-MEL-28 = tested on: SK-MEL-28
SK-MEL-2 = tested on: SK-MEL-2
SK-MEL-5 = tested on: SK-MEL-5
SK-OV-3 = tested on: SK-OV-3
SN12C = tested on: SN12C
SNB-19 = tested on: SNB-19
SNB-75 = tested on: SNB-75
SR = tested on: SR
SW-620 = tested on: SW-620
T47D = tested on: T47D
TK-10 = tested on: TK-10
U-251 = tested on: U-251
UACC-257 = tested on: UACC-257
UACC-62 = tested on: UACC-62
UO-31 = tested on: UO-31
A498 = tested on: A498
Malme-3M = tested on: Malme-3M

Measured: GI50

CSc1ccc(C(=O)C(=O)c2ccc(SC)s2)s1
inactive: 786-0 6.64 µM | A549 > 10 µM | ACHN > 10 µM | CAKI-1 > 10 µM | CCRF-CEM 3.15 µM | COLO 205 > 10 µM | DU-145 > 10 µM | EKVX > 10 µM | HCC 2998 > 10 µM | HCT-116 > 10 µM | HL-60 3.43 µM | HOP-62 3.93 µM | HOP-92 > 10 µM | HT-29 > 10 µM | Hs-578T 3.46 µM | IGROV-1 > 10 µM | K562 6.32 µM | KM12 > 10 µM | LOX IMVI > 10 µM | M14 > 10 µM | MCF7 5.58 µM | MDA-MB-231 > 10 µM | MDA-MB-435 4.34 µM | MDA-N 4.6 µM | MOLT-4 2.51 µM | NCI-H226 > 10 µM | NCI-H23 > 10 µM | NCI-H460 > 10 µM | NCI-H522 > 10 µM | NCI/ADR-RES 8.45 µM | OVCAR-3 > 10 µM | OVCAR-4 7.24 µM | OVCAR-5 > 10 µM | OVCAR-8 > 10 µM | PC-3 > 10 µM | RPMI-8226 4.86 µM | RXF 393 > 10 µM | SF-268 > 10 µM | SF-295 > 10 µM | SF-539 4.85 µM | SK-MEL-28 > 10 µM | SK-MEL-2 > 10 µM | SK-MEL-5 > 10 µM | SK-OV-3 > 10 µM | SN12C > 10 µM | SNB-19 > 10 µM | SNB-75 > 10 µM | SR 3.92 µM | SW-620 > 10 µM | T47D > 10 µM | TK-10 > 10 µM | U-251 > 10 µM | UACC-257 > 10 µM | UACC-62 > 10 µM | UO-31 > 10 µM
> 10 µM: HCT-15

NC(=O)N/N=C\CC(O)(C(F)(F)Cl)C(F)(F)Cl
inactive: 786-0 > 10 µM | A498 > 10 µM | A549 > 10 µM | ACHN > 10 µM | CAKI-1 > 10 µM | CCRF-CEM > 10 µM | COLO 205 > 10 µM | DU-145 > 10 µM | EKVX > 10 µM | HCC 2998 > 10 µM | HCT-116 > 10 µM | HL-60 > 10 µM | HOP-62 > 10 µM | HOP-92 > 10 µM | HT-29 > 10 µM | Hs-578T > 10 µM | IGROV-1 > 10 µM | K562 > 10 µM | KM12 > 10 µM | LOX IMVI > 10 µM | M14 > 10 µM | MCF7 > 10 µM | MDA-MB-231 > 10 µM | MDA-MB-435 > 10 µM | MDA-N > 10 µM | MOLT-4 > 10 µM | Malme-3M > 10 µM | NCI-H226 > 10 µM | NCI-H23 > 10 µM | NCI-H460 > 10 µM | NCI-H522 > 10 µM | NCI/ADR-RES > 10 µM | OVCAR-3 > 10 µM | OVCAR-4 > 10 µM | OVCAR-8 > 10 µM | PC-3 > 10 µM | RPMI-8226 > 10 µM | RXF 393 > 10 µM | SF-268 > 10 µM | SF-295 > 10 µM | SF-539 > 10 µM | SK-MEL-28 > 10 µM | SK-MEL-2 > 10 µM | SK-MEL-5 > 10 µM | SK-OV-3 > 10 µM | SN12C > 10 µM | SNB-19 > 10 µM | SNB-75 > 10 µM | SR > 10 µM | SW-620 > 10 µM | T47D > 10 µM | TK-10 > 10 µM | U-251 > 10 µM | UACC-257 > 10 µM | UACC-62 > 10 µM | UO-31 > 10 µM
> 10 µM: HCT-15
